# Patent US11510964B2, “Macrocyclic peptides to decrease c-Myc protein levels and reduce cancer cell growth” (University of Kansas, priority 2017, dated 2022)
# Non-standard residues stand in square brackets, D forms with d. Residues, ends and D or L forms follow the SMILES beside them.
# Key:
# [1] = test system: transfected HEK-293 cells; assay: c-Myc overexpression, Annexin V-APC/PI apoptosis assay; format: cell-based, human; conditions: 10 μM, 48 h
# Description: The extent of apoptosis was analyzed by detecting surface expression of phosphatidylserine on apoptotic cells using an Annexin V-APC/PI dual staining apoptosis detection kit I (BD Biosciences) according to the manufacturer's protocol. Following treatment of PC-3 cells with 10 μM [D-Trp]CJ-15,208 or vehicle for 24 h or 48 h, the cells were collected, washed twice with cold PBS, and resuspended in 1× binding buffer at a concentration of 1×10^6 cells/mL. Cell suspension (100 μL) was transferred to a 5 ml culture tube, and 5 μL of Annexin V-APC and 25 μL of PI (50 μg/mL) were added. The cells were incubated for 15 min at room temperature in the dark with gentle vortexing, 400 μL of 1× binding buffer was then added to each sample, and the samples were analyzed using a Beckman-Coulter MoFlo XDP flow cytometer within one hour. The number of viable, apoptotic and necrotic cells were quantified using FlowJo v10.0.7. The apoptosis fraction (%) was calculated as (number of apoptotic cells/the number of total cells observed)×100%.^38
# Forced expression of c-Myc in HEK 293 cells was performed using X-temeGENE HP #6366244001 (Sigma). Cells were cultured in antibiotic free DMEM supplemented with 10% FBS and transfected with pcDNA3-HA-HA-c-Myc #74164 (Addgene). Empty-vector pcDNA3-EV was used as a control. […] Samples were analyzed using a BD FACSCanto-II cell analyzer and quantified in FlowJo v10.2. […]
# [2] = test system: PC-3 cells; assay: Cell cycle analysis (PI, flow cytometry); format: cell-based, human; conditions: PC-3, 10 μM
# Description: PC-3 cells were grown in T-75 flask to 75% confluency and treated with either 10 μM [D-Trp]CJ-15,208 in 0.5% DMSO or 0.5% DMSO as a vehicle control for 24-48 h. After treatment, the cell media was collected, the cells were washed with ice cold PBS twice, and the washes collected with the media. The cells were then trypsinized and the combined cells and media centrifuged at 1200 rpm for 5 min. The cell pellet was resuspended in PBS, the cells counted using a hematocytometer, and 1 million cells resuspended in 300 μL PBS. The cells were fixed with 700 μL ice cold 100% ethanol overnight and then centrifuged at 1200 rpm. Following removal of the ethanol, the cells were resuspended in 500 μL PBS containing 100 μg/mL RNAse and incubated for 30 min at room temperature. Propidium iodide (PI) solution (Sigma, 100 μg/mL) was added, and the solution then incubated for 30 min at room temperature in the dark. Cell cycle analysis^38 was performed using a Beckman-Coulter MoFlo XDP flow cytometer, and the cell cycle phase distribution was analyzed using FlowJo v10.1.
# Each experiment was performed in triplicate unless otherwise stated in the figure legend. GraphPad Prism 5 was used to determine IC50 values. Data represent the mean value+/−SEM. Compound vs. vehicle treated cells in the cell cycle phase and apoptosis experiments (FIGS. 5-8) were compared using the student's t-test, with a two-tailed, unpaired method, using the Prism software. The effects of compound vs. vehicle treatment on protein levels (FIG. 10) were evaluated by one-way ANOVA with Dunnett's test for multiple comparisons.
compound,measurement,setting,value
"O=C1N[C@H](Cc2c[nH]c3ccccc23)C(=O)N[C@@H](Cc2ccccc2)C(=O)N2CCC[C@@H]2C(=O)N[C@H]1Cc1ccccc1 [[D-Trp]CJ-15,208, cyclo[Phe-D-Pro-Phe-D-Trp]] (cyclo(F[dP]F[dW]))",early apoptosis,[1]; HEK-293 overexpressing c-Myc,significant increase in early apotosis
same,early apoptosis,[1]; HEK-293 transfected with empty vector,no significant difference
same,cell population in G2 phase,[2]; 24 h,42±4%
same,mean cell distribution in S phase,[2]; 24 h,26±4%
same,mean cell population in G1 phase,[2]; 24 h,32±1%
same,cells accumulated in G2 phase compared to vehicle treated control cells,[2]; 24 h or 48 h,at least 8 fold
same,cell population in G2 phase,[2]; 48 h,58±4%
same,mean cell distribution in S phase,[2]; 48 h,12±0.6%
same,mean cell population in G1 phase,[2]; 48 h,31±6%
